Assay results published in patent EP4721737A1, “USE OF PHARMACEUTICAL COMPOSITION COMPRISING COMPOUND HAVING BIS(AZANYLYLIDENE) SULFONYL STRUCTURE FOR TREATING ANEMIA-RELATED DISEASES” (Scinnohub Pharmaceutical Co., Ltd., priority 2023, dated 2024).
Read-outs that look alike come from different tables or passages of the source.

Legend:
wild-type mice = assay: in vivo efficacy study in wild-type mice (HGB, ATP, 2,3-DPG in whole blood); conditions: C57BL/6J, whole blood 2-3 hours after last administration; for HGB: vehicle control 14.9; for ATP: vehicle control 452.0; for 2,3-DPG: vehicle control 1727.8
Description: The effects of the compound on wild-type mice were evaluated by detecting the concentrations of HGB, ATP, and 2,3-DPG in the whole blood of mice.
• i. On the day of administration, the compound was weighed, then the vehicle was added to prepare the administration solution: vehicle: 5% DMSO + 10% Solutol + 85% Saline
i. Wild-type mice were randomly divided into groups based on body weight, with 8 mice per group.
• i. Whole blood sample was collected 2-3 hours after the last administration of the test animal for HGB assay.
• i. An LC-MS/MS method was established to determine the ATP and 2,3-DPG contents in whole blood sample 2-3 hours after the last administration of the test animal.

[1] = pharmacokinetic properties test in dogs; format: in vivo; conditions: dog, Beagle, single, plasma; for MRT last: read-out: MRT0-t; for Vd: read-out: Vss
Description: (§1) The pharmacokinetic properties of the compounds of the present disclosure in different animal species were investigated by measuring plasma drug concentrations following intravenous and oral gavage in mouse, rat, and dog.
(§2) i. The compounds were weighed, then the solvent (5% DMSO + 10% Solutol + 85% saline) was added to prepare the administration solution. ii. On the day before the experiment, animals in the oral administration group were fasted overnight (10-14 hours) and fed 4 hours after administration. iii. At each time point after administration, approximately 30 µL of venous blood was collected from an appropriate location in each group of animals and placed in a sodium heparin tube. Blood samples were placed on ice and centrifuged within 1 hour to separate plasma (centrifugation conditions: 6800 g, 6 min, 2-8°C). Plasma samples were stored at -80°C until analysis.
(§3) b) An LC-MS/MS analytical method was developed for measuring compound concentrations in mouse, rat, and dog plasma. This method was used to determine compound concentrations in biological samples obtained in this assay.
(§4) Pharmacokinetic parameters were calculated using Phoenix WinNonlin 7.0 using plasma drug concentration data at different time points.

[2] = pharmacokinetic properties test in rats; format: in vivo; conditions: SD rat, single, plasma; for MRT last: read-out: MRT0-t; for Vd: read-out: Vss
Description: as §1, §2, §3, §4

[3] = biological target: T1, PKR in ex vivo red blood cells of patients with thalassemia (Homo sapiens, UniProt P30613); assay: ex vivo pyruvate kinase (PKR) activity experiment, red blood cells of patients with thalassemia; format: cell-based
T1 construct: endogenous in cells; host or cells: human red blood cells of thalassemia patients (Patients A-D)
T1 sequence (P30613 whole entry): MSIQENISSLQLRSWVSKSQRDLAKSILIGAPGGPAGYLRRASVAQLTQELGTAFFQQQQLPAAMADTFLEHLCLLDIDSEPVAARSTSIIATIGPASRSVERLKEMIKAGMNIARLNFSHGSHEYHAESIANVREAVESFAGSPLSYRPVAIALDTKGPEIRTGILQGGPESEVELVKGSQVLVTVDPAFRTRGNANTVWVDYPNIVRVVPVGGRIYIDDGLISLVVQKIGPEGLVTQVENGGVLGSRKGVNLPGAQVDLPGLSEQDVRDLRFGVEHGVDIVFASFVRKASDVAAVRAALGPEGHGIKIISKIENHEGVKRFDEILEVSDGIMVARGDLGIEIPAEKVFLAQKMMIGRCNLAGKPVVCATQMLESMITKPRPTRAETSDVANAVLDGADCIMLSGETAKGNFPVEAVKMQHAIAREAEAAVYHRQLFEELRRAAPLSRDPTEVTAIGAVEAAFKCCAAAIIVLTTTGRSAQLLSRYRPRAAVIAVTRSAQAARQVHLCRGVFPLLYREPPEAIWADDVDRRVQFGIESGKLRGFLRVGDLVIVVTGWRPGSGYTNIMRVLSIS
Description: To test the effects of the compound of the present disclosure on PKR activation in ex vivo red blood cells from healthy individuals and patients with thalassemia.
• i. 5 g of glucose, 85 mg of adenine, and 2.625 g of mannitol were weighed and added into a 50 mL centrifuge tube. 40 mL of PBS was added to dissolve (sonicate for 30 minutes until completely dissolved). The solution was filtered through a 0.22 µm filter, then added to 460 mL of sterile PBS and mixed thoroughly.
• i. Fresh human peripheral blood was collected. K2EDTA was used as the anticoagulant. 1 part anticoagulant with 9 parts blood was mixed, then centrifuged at 500 g for 10 minutes at room temperature to remove the plasma. • ii. Packed red blood cells: 1.5 volumes of PBS were added, then centrifuged at 2000 ×g for 5 minutes at room temperature. After centrifugation, the supernatant was removed. This step was repeated twice. • iii. Diluted red blood cells: 1.5 volumes of PBS were added, then resuspended and mixed thoroughly. • iv. The diluted red blood cells were slowly added to 0.5 volume of 70% isotonic solution (e.g., 7.5 mL of diluted red blood cells + 3 mL of 70% isotonic solution Percoll) and centrifuged at 4000 ×g for 20 minutes at 4°C. • v. The supernatant was removed. The red blood cells at the bottom were washed once with 4-5 mL of PBS to elute the Percoll gel, and then centrifuged at 2000 ×g for 5 minutes at room temperature. • vi. The supernatant was removed. The red blood cells were counted and then diluted in AGAM medium containing 10% FBS to a density of 2 × 10^8 cells/mL for storage at 4°C.
i. The red blood cells were seeded into a 96-well plate at a uniform density of 1 × 10^7 cells/mL, with 100 µL per well. The test compounds (dissolved in DMSO) were diluted and added to the cell culture medium, resulting in final compound concentrations of 3000, 1000, 300, 100, 10, 3, and 1 nM (with 1% DMSO). The cells and compounds were co-cultivated for 3 hours in a 37°C incubator with 5% CO2. Subsequently, the plate was centrifuged at 2000 g for 20 minutes, and the supernatant was discarded. 100 µL of red blood cell lysis buffer was added to the cell pellet, vortexed for 20 minutes, and centrifuged at 4000 g for 5 minutes. The supernatant was collected for analysis. ii. The reaction system was prepared according to the kit instructions (shown as the table below), 10 µL of the reaction system was added to each well of a 384-well plate, and 10 µL of red blood cell lysis buffer was took and mixed well (20 µL reaction system).
iii. A black, transparent-bottomed 384-well plate was placed in a microplate reader to measure fluorescence at 540/590 nm. The fluorescence was read every 2 minutes for 1 hour.
i. The Slope value was calculated over the assay time. Compound activation percentage was calculated using the 1% DMSO well as the control well. Activation percentage = (Slope of compound well / Slope of control well) × 100% ii. Dose-response curve was fit using the logarithmic compound concentration on the X-axis and the percent activation percentage on the Y-axis, the log(agonist) vs. response - variable slope function in GraphPad Prism 5 was used to determine the AC50 value for each compound on PKR activity. Y = min + (max−min)/(1+10^(∧)((LogAC50−X)×Hillslope)). [formula] The PKR agonist effects of the compound of the present disclosure on ex vivo red blood cells from healthy individuals and thalassemia patients were determined using the above assay. The AC50 values measured on ex vivo red blood cells from healthy individuals are as follows (A represents 0-100 nM, B represents 101-300 nM, and C represents 300-1000 nM): […]

[4] = 2.5 mg/kg oral gavage twice a day 14 days
[5] = 7.5 mg/kg oral gavage twice a day 14 days
[6] = 25 mg/kg oral gavage twice a day 14 days
[7] = thalassemia Patient A, read-out: AC50 (nM) Patient A
[8] = thalassemia Patient B, read-out: AC50 (nM) Patient B
[9] = thalassemia Patient C, read-out: AC50 (nM) Patient C
[10] = thalassemia Patient D, read-out: AC50 (nM) Patient D
[11] = 15 mg/kg oral gavage twice a day 14 days
[12] = 50 mg/kg oral gavage twice a day 14 days
[13] = 75 mg/kg oral gavage twice a day 14 days

## N#Cc1ccc(S(=O)(=O)N2CC(=C3CN(C(=O)[C@H](CO)c4ccccc4)C3)C2)cc1 [Compound 65, (S)-4-(1'-(3-hydroxy-2-phenylpropionyl)-1',4'-dihydro-2H,2'H-[3,3'-diazetidinylidene]-1(4H)-ylsulfonyl)benzonitrile]
wild-type mice; [4]
  HGB: 15.1 g/dL
  ATP: 481.5 µg/mL
  2,3-DPG: 1417.4 µg/mL
wild-type mice; [5]
  HGB: 14.9 g/dL
  ATP: 486.5 µg/mL
  2,3-DPG: 1417.4 µg/mL
wild-type mice; [6]
  HGB: 14.9 g/dL
  ATP: 475.9 µg/mL
  2,3-DPG: 1363.0 µg/mL
[1]; 2 mg/kg intravenous injection
  AUC(0-t): 8570 ng·h/mL
  Cmax: 1770 ng/mL
  Tmax: 0.14 h
  clearance: 3.72 mL/min/kg
  half-life: 5.81 h
  MRT last: 5.53 h
  Vd: 1.55 L/kg
[1]; 5 mg/kg oral gavage, fasted
  AUC(0-t): 19500 ng·h/mL
  Cmax: 2480 ng/mL
  Tmax: 1.33 h
  half-life: 4.47 h
  MRT last: 5.28 h
[2]; 1 mg/kg intravenous injection
  AUC(0-t): 394 ng·h/mL
  Cmax: 689 ng/mL
  Tmax: 0.08 h
  clearance: 42.2 mL/min/kg
  half-life: 0.64 h
  MRT last: 0.58 h
  Vd: 1.56 L/kg
[2]; 10 mg/kg oral gavage, fasted
  AUC(0-t): 1730 ng·h/mL
  Cmax: 993 ng/mL
  Tmax: 0.25 h
  half-life: 1.53 h
  MRT last: 2.24 h
[3]; [7]
  AC50: 251 nM
[3]; [8]
  AC50: 84.4 nM
[3]; [9]
  AC50: 140 nM
[3]; [10]
  AC50: 145 nM

## O=C([C@H](CO)c1ccc(F)cc1F)N1CC(=C2CN(S(=O)(=O)c3ccccn3)C2)C1 [Compound 83, (S)-2-(2,4-difluorophenyl)-3-hydroxy-1-(1'-(pyridin-2-ylsulfonyl)-1',4'-dihydro-2H,2'H-[3,3'-diazetidinylidene]-1(4H)-yl)propan-1-one]
wild-type mice; [11]
  HGB: 15.3 g/dL
  ATP: 476.9 µg/mL
  2,3-DPG: 1454.1 µg/mL
wild-type mice; [12]
  HGB: 15.4 g/dL
  ATP: 472.1 µg/mL
  2,3-DPG: 1444.5 µg/mL
wild-type mice; [13]
  HGB: 14.6 g/dL
  ATP: 474.1 µg/mL
  2,3-DPG: 1441.8 µg/mL
[1]; 2 mg/kg intravenous injection
  AUC(0-t): 3110 ng·h/mL
  Cmax: 1590 ng/mL
  Tmax: 0.08 h
  clearance: 11.2 mL/min/kg
  half-life: 3.72 h
  MRT last: 2.79 h
  Vd: 1.93 L/kg
[1]; 5 mg/kg oral gavage, fasted
  AUC(0-t): 12200 ng·h/mL
  Cmax: 3300 ng/mL
  Tmax: 0.67 h
  half-life: 5.21 h
  MRT last: 4.51 h
[2]; 1 mg/kg intravenous injection
  AUC(0-t): 537 ng·h/mL
  Cmax: 731 ng/mL
  Tmax: 0.08 h
  clearance: 29.9 mL/min/kg
  half-life: 4.91 h
  MRT last: 2.12 h
  Vd: 5.11 L/kg
[2]; 10 mg/kg oral gavage, fasted
  AUC(0-t): 3300 ng·h/mL
  Cmax: 1740 ng/mL
  Tmax: 0.25 h
  half-life: 3.43 h
  MRT last: 3.2 h
[3]; [7]
  AC50: 21.8 nM
[3]; [8]
  AC50: 20.9 nM
[3]; [9]
  AC50: 24.8 nM
[3]; [10]
  AC50: 11.7 nM
